Test results: the supplement of paper PMC8671470

Key:
Assay in all cases: cell viability (% survival relative to DMSO control, bortezomib = 0%); higher = less cytotoxic
Settings in all cases: 72 h
[1] = tested on: KU-812
How it was run: (§1)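 After 72 h at 37 °C with 5% CO2, cell viability in 384-well plates was measured by CellTiter-Glo luminescence. The plates held compounds pre-printed at 1, 10, 100, 1000 or 10000 nM in duplicate, and cells from 10 AML and 5 CML lines seeded at densities titrated to linear growth. Percent survival is the duplicate mean, normalised to vehicle as 100% and a 10 µM positive control as 0%.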

[2] = tested on: Mono-Mac-6
How it was run: as §1

[3] = tested on: NOMO-1
How it was run: as §1

[4] = tested on: THP-1
How it was run: as §1

| SMILES | cell viability ([1]; 1 nM) [%] | cell viability ([1]; 10 nM) [%] | cell viability ([1]; 100 nM) [%] | cell viability ([1]; 1000 nM) [%] | cell viability ([1]; 10000 nM) [%] | cell viability ([2]; 1 nM) [%] | cell viability ([2]; 10 nM) [%] | cell viability ([2]; 100 nM) [%] | cell viability ([2]; 1000 nM) [%] | cell viability ([2]; 10000 nM) [%] | cell viability ([3]; 1 nM) [%] | cell viability ([3]; 10 nM) [%] | cell viability ([3]; 100 nM) [%] | cell viability ([3]; 1000 nM) [%] | cell viability ([3]; 10000 nM) [%] | cell viability ([4]; 1 nM) [%] | cell viability ([4]; 10 nM) [%] | cell viability ([4]; 100 nM) [%] | cell viability ([4]; 1000 nM) [%] | cell viability ([4]; 10000 nM) [%] |
| --- | --- | --- | --- | --- | --- | --- | --- | --- | --- | --- | --- | --- | --- | --- | --- | --- | --- | --- | --- | --- |
| N#Cc1ccc(C2CCCc3cncn32)cc1 (stereo not given) [Fadrozole] | 95.8 | 87.3 | 92.2 | 112 | 112 | 102 | 93.4 | 97.2 | 101 | 112 | 100 | 90.2 | 93.4 | 100 | 105 | 99.6 | 96.3 | 96.2 | 107 | 102 |
| Cc1nc(-c2ccc(OCC(C)C)c(C#N)c2)sc1C(=O)O [Febuxostat] | 101 | 97.3 | 94 | 98.4 | 83.9 | 91.7 | 102 | 99 | 92.9 | 92.7 | 96.3 | 97.7 | 98.5 | 99.6 | 93.1 | 102 | 92.4 | 95.1 | 99.6 | 93.6 |
| OC[C@H]1N[C@@H](c2c[nH]c3c(O)ncnc23)[C@H](O)[C@@H]1O [Forodesine] | 89.9 | 96 | 96.8 | 96.4 | 75.4 | 109 | 87.5 | 107 | 108 | 88.5 | 97.9 | 92.3 | 97.3 | 96.9 | 87.4 | 100 | 93.9 | 90.7 | 83.1 | 74.3 |
| O=c1oc2c(cc1O)oc(=O)c1cc(O)c(O)c(O)c12 [Galloflavin] | 94.8 | 96 | 90.7 | 96.6 | 105 | 92.9 | 99.7 | 113 | 113 | 100 | 91.8 | 97.7 | 99.1 | 102 | 106 | 98 | 99.3 | 101 | 99.4 | 108 |
| N[C@@H](CCC(=O)N[C@@H](CS)C(=O)NCC(=O)O)C(=O)O [Glutathione] | 105 | 110 | 108 | 96 | 96.5 | 96.2 | 89.5 | 84.9 | 103 | 89.9 | 98.9 | 105 | 91.1 | 94.2 | 106 | 100 | 102 | 95.4 | 105 | 105 |
| CC1Cc2ccccc2N1NC(=O)c1ccc(Cl)c(S(N)(=O)=O)c1 (stereo not given) [Indapamide] | 89.8 | 111 | 95.8 | 104 | 89.7 | 99.6 | 112 | 112 | 110 | 90.9 | 98.2 | 103 | 101 | 101 | 102 | 93.5 | 105 | 93.2 | 95.4 | 97 |
| COc1ccc2c(c1)c(CC(=O)O)c(C)n2C(=O)c1ccc(Cl)cc1 [Indomethacine] | 100 | 101 | 95.6 | 96.4 | 80 | 97.9 | 93.8 | 99.8 | 112 | 92.3 | 98.3 | 107 | 100 | 110 | 95.7 | 100 | 98.8 | 105 | 110 | 97.8 |
| Cn1cc(C[C@@H](N)C(=O)O)c2ccccc21 [Indoximod] | 93.8 | 101 | 90.9 | 105 | 95.6 | 104 | 102 | 92.9 | 97.7 | 91.8 | 112 | 96.2 | 95.6 | 117 | 99 | 99.3 | 96.4 | 102 | 94.8 | 98.4 |
| O=C(Oc1ccc([N+](=O)[O-])cc1)N1CCC(C(O)(c2ccc3c(c2)OCO3)c2ccc3c(c2)OCO3)CC1 [JZL184] | 101 | 102 | 112 | 90.5 | 85.8 | 90.2 | 111 | 104 | 103 | 92.3 | 101 | 99.5 | 102 | 102 | 95.2 | 97.2 | 103 | 95.4 | 101 | 96.2 |
| O=C1N[C@@H]2[C@@H](O)[C@@H](O)[C@H](O)[C@@H](CO)N2C1=O [Kifunensine] | 92.5 | 98.4 | 106 | 83.4 | 96.2 | 91.8 | 102 | 107 | 88.7 | 92.4 | 103 | 102 | 110 | 88.7 | 100 | 98.6 | 95.2 | 97.7 | 89 | 104 |
| CC(C)(CCCCCCCCCCC(C)(C)CC(=O)O)CC(=O)O [MEDICA 16] | 106 | 94.2 | 101 | 106 | 97.8 | 99.8 | 114 | 102 | 102 | 111 | 100 | 95.3 | 101 | 101 | 103 | 103 | 94.8 | 97.2 | 96.5 | 99.3 |
| CC(C)c1ccc2c(c1)c(SC(C)(C)C)c(CC(C)(C)C(=O)O)n2Cc1ccc(Cl)cc1 [MK-886] | 109 | 97.3 | 94.1 | 94.9 | 91.5 | 111 | 109 | 91.5 | 101 | 108 | 120 | 110 | 106 | 107 | 97.5 | 96.6 | 101 | 98.2 | 96.8 | 108 |
| O=C(CCl)N(CCCNC(=O)C(F)(F)F)c1ccc([N+](=O)[O-])cc1 [ML175] | 99.1 | 96.8 | 89.7 | 81.3 | -0.456 | 101 | 104 | 98.2 | 44.6 | -1.09 | 96.3 | 97.8 | 97.8 | 0.0839 | -0.851 | 99.7 | 102 | 91.9 | 94.2 | -2.38 |
| CN(C)C(=N)NC(=N)N [Metformin] | 102 | 95.5 | 96.2 | 110 | 88.5 | 113 | 89.7 | 95.5 | 97.9 | 91.8 | 109 | 93.6 | 95.4 | 97.1 | 92.2 | 99.4 | 95.4 | 93 | 101 | 94.4 |
| Cl.OC[C@H]1NC[C@H](O)[C@@H](O)[C@H]1O [Migalastat] | 92.1 | 92.3 | 99.4 | 98.1 | 98.5 | 102 | 87.4 | 104 | 98.3 | 103 | 101 | 103 | 104 | 100 | 94.8 | 102 | 99.1 | 104 | 98.7 | 90.9 |
| OCCN1C[C@H](O)[C@@H](O)[C@H](O)[C@H]1CO [Miglitol] | 101 | 103 | 86.9 | 98.3 | 96 | 106 | 102 | 98.1 | 91.3 | 99.1 | 98.2 | 102 | 100 | 93.7 | 98.5 | 102 | 106 | 100 | 95.9 | 101 |
| CCCCCCCNC=O [N-Heptyl-Formamide] | 108 | 97.3 | 98.9 | 107 | 91.7 | 110 | 97.3 | 101 | 114 | 96.8 | 110 | 96.7 | 100 | 113 | 93 | 110 | 97.1 | 97.1 | 104 | 96.7 |
| CC(C)(F)C[C@H](N[C@@H](c1ccc(-c2ccc(S(C)(=O)=O)cc2)cc1)C(F)(F)F)C(=O)NC1(C#N)CC1 [Odanacatib] | 94.8 | 87.9 | 99.7 | 91.8 | 99.2 | 96.4 | 101 | 101 | 99.2 | 85.5 | 99.6 | 100 | 108 | 102 | 100 | 99.2 | 99.6 | 100 | 94.9 | 95.7 |
| CNC(=C[N+](=O)[O-])NCCSCc1ccc(CN(C)C)o1 [Ranitidine] | 109 | 101 | 97.4 | 96.8 | 107 | 94.6 | 96.6 | 115 | 95.6 | 113 | 96.3 | 96.2 | 108 | 98.7 | 101 | 105 | 103 | 98.2 | 99.6 | 102 |
| C#CCN[C@@H]1CCc2ccccc21 [Rasagiline] | 94.1 | 104 | 97.1 | 90.3 | 111 | 92.4 | 105 | 101 | 80.9 | 100 | 95.2 | 103 | 103 | 93.2 | 102 | 102 | 102 | 103 | 96 | 101 |
| NC(CCC(=O)NC(CSCc1ccc(Br)cc1)C(=O)NCC(=O)OC1CCCC1)C(=O)OC1CCCC1 (stereo not given) [S-para-Bromobenzylglutathione cyclopentyl diester] | 90.1 | 97.2 | 95.9 | 101 | 93.9 | 108 | 96.5 | 88.8 | 90.6 | 63.3 | 98 | 98.1 | 97.4 | 97.8 | 95.8 | 103 | 97.5 | 96.8 | 101 | 92 |
| COc1cc(C2Oc3cc(C4Oc5cc(O)cc(O)c5C(=O)C4O)ccc3OC2CO)ccc1O (stereo not given) [Silibinin] | 96.5 | 93.1 | 108 | 94.1 | 90.7 | 96.4 | 91.2 | 94.1 | 99 | 98.9 | 95.3 | 96.4 | 99.8 | 101 | 99.7 | 99.3 | 95.5 | 107 | 98.9 | 95.9 |
| Cn1c2cc(S(C)=O)sc2c2cnn(Cc3cccc(N)c3)c(=O)c21 (stereo not given) [TEPP-46] | 94.7 | 102 | 98.5 | 107 | 74.4 | 102 | 106 | 103 | 102 | 83 | 104 | 92.6 | 102 | 99.8 | 93.3 | 101 | 100 | 97.5 | 104 | 99.7 |
| CCCCCCCCCCCCCCOc1ccc(C(=O)O)o1 [TOFA] | 109 | 95 | 95.6 | 81.5 | 82.5 | 113 | 94.5 | 99.8 | 94.2 | 105 | 105 | 101 | 99.3 | 99 | 109 | 98.2 | 101 | 97.9 | 86.4 | 88.8 |
| CN1CC(=O)N2[C@H](c3ccc4c(c3)OCO4)c3[nH]c4ccccc4c3C[C@@H]2C1=O [Tadalafil] | 98.8 | 87.8 | 99.2 | 106 | 96 | 99.8 | 93 | 94.8 | 95.4 | 99 | 97.8 | 95.1 | 96.6 | 105 | 108 | 96.7 | 97.9 | 94.9 | 98.4 | 96.6 |
| Cl.NC1=CCCN1Cc1nc(O)nc(O)c1Cl [Tipiracil] | 101 | 88.8 | 104 | 108 | 99.7 | 122 | 96.2 | 107 | 100 | 96.5 | 106 | 100 | 100 | 100 | 99.2 | 102 | 97.2 | 102 | 101 | 101 |
| CCCC(CCC)C(=O)O [Valproic acid] | 95.6 | 86.5 | 92.6 | 99.5 | 97.2 | 96.3 | 98.2 | 98.3 | 105 | 99.1 | 93.8 | 93.6 | 94.6 | 98.5 | 104 | 104 | 93.2 | 93.7 | 102 | 91.2 |
